Results taken from patent US20240150356A1, “Pyrimidine amide compounds and use thereof” (ALPHALA CO., LTD., priority 2019, published 2024).
Like-named read-outs stand apart in the source and are kept apart here.

Tests used:
Assay type in all cases: cell-based
[1] = system: NCI-H460 (human lung cancer cell line); experiment: In vitro MTS cell viability assay (NCI-60 methodology), NCI-H460; conditions: NCI-H460 cells, read-out: NCI-H460 LC50
Experimental: (§1) The cell viability measurement is based on the NCI-60 screening methodology (Nat. Rev. Cancer 6, 813-823, 2006). Briefly, cells are inoculated into 96-well plates at the optimal plating density. After 24 h, one of the two plates for Hep3B cell line is processed to determine a time zero cell viability (Tz) by MTS assay (Promega). Compounds are added over a 2-fold serial dilution to provide a total five drug concentrations plus DMSO control. Plates are incubated for a further 2 days, then measured cell viability by MTS assay [control growth (C) and test growth in the presence of drug at the five concentration levels (Ti)]. The LC50 is calculated from [(Ti−Tz)/Tz]×100=−50, which is the drug concentration resulting in a 50% reduction at the end of the drug treatment as compared to that at the beginning.
(§2) The compounds prepared in Tables 1-10 were tested in three in vitro assays, and the results are shown in Tables 1-10 for Hep3B and Table 11 for SW480 and NCI-H460 shown below. Herein, Hep3B refers to hepatocellular carcinoma cell line, SW480 refers to colon adenocarcinoma cell line, and NCI-H460 refers to human lung cancer cell line.
(§3) Shown in Tables 11 are in vitro activities of exemplary compounds of formula (I).

[2] = system: SW480 (colon adenocarcinoma cell line); experiment: In vitro MTS cell viability assay (NCI-60 methodology), SW480; conditions: Homo sapiens, SW480 cells, read-out: SW480 LC50
Experimental: as §1, §2, §3

[3] = system: Hep3B cells (hepatocellular carcinoma cell line); experiment: In vitro MTS cell viability assay (NCI-60 methodology), Hep3B; conditions: Homo sapiens, 48 h, 2 days drug incubation, 50% reduction vs time zero, read-out: Hep3B LC50
How it was run: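 Following NCI-60 method, MTS viability of Hep3B measured 24 h after plating (time zero) and after a further 2-day exposure to five concentrations (2-fold series). LC50 defined where [(Ti−Tz)/Tz]×100 = −50.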

Compound | CC50 [1] | CC50 [2] | LC50 ([3]; Table 5, MTS) | LC50 ([3]; Table 6, MTS) | LC50 ([3]; Table 7, MTS) | LC50 ([3]; Table 10, MTS) | LC50 ([3]; Table 1, MTS)
O=C(Nc1nc(-c2ccc(F)cc2F)nc2c1cnn2-c1ccccc1)c1ccc([N+](=O)[O-])s1 [Compound 5-45, N-(6-(2,4-difluorophenyl)-1-phenyl-1H-pyrazolo[3,4-d]pyrimidin-4-yl)-5-nitrothiophene-2-carboxamide] | 2180 nM | 1110 nM | 440 nM | – | – | – | –
COc1ccc(-n2ncc3c(NC(=O)c4ccc([N+](=O)[O-])s4)nc(-c4ccc(F)nc4)nc32)cc1 [Compound 6-19, N-(6-(6-fluoropyridin-3-yl)-1-(4-methoxyphenyl)-1H-pyrazolo[3,4-d]pyrimidin-4-yl)-5-nitrothiophene-2-carboxamide] | 220 nM | 450 nM | – | 60 nM | – | – | –
CCCOc1ccc(-c2nc(NC(=O)c3ccc([N+](=O)[O-])s3)c3cnn(-c4ccc(F)cc4)c3n2)cn1 [Compound 6-133, N-(1-(4-fluorophenyl)-6-(6-propoxypyridin-3-yl)-1H-pyrazolo[3,4-d]pyrimidin-4-yl)-5-nitrothiophene-2-carboxamide] | 490 nM | 430 nM | – | 160 nM | – | – | –
CCOCCOCCOc1ccc(-c2nc(NC(=O)c3ccc([N+](=O)[O-])s3)c3cnn(-c4ccc(Cl)cc4)c3n2)cn1 [Compound 6-53, N-(1-(4-chlorophenyl)-6-(6-(2-(2-ethoxyethoxy)ethoxy)pyridin-3-yl)-1H-pyrazolo[3,4-d]pyrimidin-4-yl)-5-nitrothiophene-2-carboxamide] | 1090 nM | 1040 nM | – | 130 nM | – | – | –
CC(C)(C)c1ccc(-n2ncc3c(NC(=O)c4ccc([N+](=O)[O-])s4)nc(N4CCC(F)(F)C4)nc32)cc1 [Compound 6-66, N-(1-(4-(tert-butyl)phenyl)-6-(3,3-difluoropyrrolidin-1-yl)-1H-pyrazolo[3,4,d]pyrimidin-4-yl)-5-nitrothiophene-2-carboxamide] | 410 nM | > 10000 nM | – | 130 nM | – | – | –
O=C(Nc1nc(-c2ccc(Cl)cc2)nc2c1cnn2-c1ccc(C(F)(F)F)cn1)c1ccc([N+](=O)[O-])s1 [Compound 7-3, N-(6-(4-chlorophenyl)-1-(5-(trifluoromethyl)pyridin-2-yl)-1H-pyrazolo[3,4-1]pyrimidin-4-yl)-5-nitrothiophene-2-carboxamide] | 400 nM | 530 nM | – | – | 130 nM | – | –
O=C(Nc1nc(-c2ccc(F)nc2)nc2c1cnn2C1CCC(F)(F)CC1)c1ccc([N+](=O)[O-])s1 [Compound 10-55, N-(1-(4,4-difluorocyclohexyl)-6-(6-fluoropyridin-3-yl)-1H-pyrazolo[3,4-d]pyrimidin-4-yl)-5-nitrothiophene-2-carboxamide] | 940 nM | 1060 nM | – | – | – | 710 nM | –
O=C(Nc1nc(-c2ccc(Cl)c(F)c2)nc2c1cnn2-c1ccc(F)cc1)c1ccc([N+](=O)[O-])s1 [Compound 6-127] | 450 nM | 1060 nM | – | 150 nM | – | – | –
CC(C)(C)n1ncc2c(NC(=O)c3ccc([N+](=O)[O-])s3)nc(-c3ccc(OC(F)(F)F)cc3)nc21 [Compound 1-27, N-(1-(tert-butyl)-6-(4-(trifluoromethoxy)phenyl)-1H-pyrazolo[3,4-d]pyrimidin-4-yl)-5-nitrothiophene-2-carboxamide] | 1990 nM | 4140 nM | – | – | – | – | 610 nM
N#Cc1ccc(-c2nc(NC(=O)c3ccc([N+](=O)[O-])s3)c3cnn(-c4ccccc4)c3n2)cn1 [Compound 5-33, N-(6-(6-cyanopyridin-3-yl)-1-phenyl-1H-pyrazolo[3,4-d]pyrimidin-4-yl)-5-nitrothiophene-2-carboxamide] | 1800 nM | 600 nM | 300 nM | – | – | – | –
O=C(Nc1nc(-c2ccc(F)c(F)c2)nc2c1cnn2-c1ccc(F)cc1)c1ccc([N+](=O)[O-])s1 [Compound 6-125, N-(6-(3,4-difluorophenyl)-1-(4-fluorophenyl)-1H-pyrazolo[3,4-d]pyrimidin-4-yl)-5-nitrothiophen-2-carboxamide] | 350 nM | 2280 nM | – | 100 nM | – | – | –
